Reference: patent US10450260B2, “NO- and H2S-releasing compounds” (RESEARCH FOUNDATION OF THE CITY UNIVERSITY OF NEW YORK, priority 2011, dated 2019)

Test system: HT-29 human colon cancer cells
Experiment: MTT cell growth inhibition, HT-29
Type: cell-based
Conditions: Homo sapiens; HT-29, 24 h (Table 5); in combinations the IC50 of ASA with fixed concentrations of SNAP and/or ADT-OH; read-out: IC50 at 24 hours for HT-29 cell growth inhibition
Procedure: HT-29, SW-480 and HCT-15 human colon adenocarcinoma, MIA PaCa-2 and BxPC-3 human pancreatic cancer, LNCAP human prostate cancer, A549 human lung cancer, MCF-7 (estrogen receptor positive), MDA-MB 231 and SK-BR-3 (estrogen receptor negative) human breast cancer, and Jurkats human leukemia cell lines were obtained from American Type Tissue Collection (Manassas, Va.). All cells lines were grown as monolayers except for the Jurkats which were grown in suspension. The pancreatic and breast cancer cells were grown in Dulbecco's modified Eagle's medium, the prostate, Jurkat, SW-480 and HCT-15 colon cells were grown in RPMI 1640 medium, the lung cells were grown in F-12 and the colon HT-29 cells were grown in McCoy 5A. All media were supplemented with 10% fetal calf serum (Invitrogen, Carlsbad, Calif.) penicillin (50 U/ml), and streptomycin (50 μg/ml) (Invitrogen, Carlsbad, Calif.). Cells were seeded on culture dishes at a density of 25×10^3 cells/cm^2 and incubated at 37° C. in 5% CO2 and 90% relative humidity. Single cell suspensions were obtained by trypsinization (0.05% trypsin/EDTA), and cells were counted using a hemocytometer. Viability was determined by the trypan blue dye exclusion method.
Cell growth inhibitory effect of NOSH compounds were measured using a colorimetric MTT assay kit (Roche, Indianapolis, Ind.). Cancer cells were plated in 96-well plates at a density of 50,000 cells/well. The cells were incubated for 24 h with different concentrations of NOSH compounds. After the indicated time, 10 μl of MTT dye (3-[4,5-dimethylthiazol-2-yl]-2,5-diphenyl tetrazolium bromide, 5 mg/ml in phosphate buffered saline), was added to each well, and the plates were incubated for 2 hours at 37° C. Then, the media was aspirated, and add 100 μl of the solubilization solution (10% SDS in 0.01 M HCl) was added to each well to solubilize the formant crystals. The absorbance of the plates was measured on an ELISA reader at a wavelength of 570 nm. Each sample was performed in triplicate, and the entire experiment was repeated three times.
HT-29 human colon cancer cells were obtained from American Type Tissue Collection (Manassas, Va.) and grown as monolayer in McCoy 5A media that was supplemented with 10% fetal calf serum (Invitrogen, Carlsbad, Ca.), penicillin (50 U/ml), and streptomycin (50 μg/ml) (Invitrogen, Carlsbad, Calif.).
Growth inhibition was measured using a colorimetric MTT assay kit (Roche, Indianapolis, Ind.). Proliferation (PCNA) was assessed using an ELISA kit from Calbiochem, (La Jolla, Calif.). Cell cycle phase distributions and apoptosis of control and treated cells were determined as previously described. All methods are described in Chattopadhyay et al., Biochemical Pharmacology, 2012, 83(6), 715-722.
HT-29, SW-480 and HCT-15 human colon adenocarcinoma, MIA PaCa-2 and BxPC-3 human pancreatic cancer, LNCAP human prostate cancer, A549 and H383 human lung cancer, MCF-7, MDA-MB 231 and SK-BR-3 human breast cancer and Jurkat T cell human leukemia cell lines were obtained from American Type Tissue Collection (Manassas, Va.) All cells lines were grown as monolayers except for the Jurkat T cells which were grown as suspension culture. The pancreatic and breast cancer cells were grown in Dulbecco's modified Eagle's medium, the prostate, Jurkat, SW-480 and HCT-15 colon cells were grown in RPMI 1640 medium, the lung cells were grown in F-12 and the colon HT-29 cells were grown in McCoy 5A. All media were supplemented with 10% fetal calf serum (Invitrogen, Carlsbad, Calif.) penicillin (50 U/ml), and streptomycin (50 μg/ml) (Invitrogen, Carlsbad, Calif.). Cells were seeded on culture dishes at a density of 25×10^3 cells/cm^2 and incubated at 37° C. in 5% CO2 and 90% relative humidity. Single cell suspensions were obtained by trypsinization (0.05% trypsin/EDTA), and cells were counted using a hemacytometer. The final DMSO concentration was adjusted in all media to 1%. Viability was determined by the trypan blue dye exclusion method. […]

| Structure (SMILES) | IC50 |
| --- | --- |
| Oc1ccc(-c2cc(=S)ss2)cc1 [ADT-OH, 5-(4-hydroxyphenyl)-3H-1,2-dithiole-3-thione, reference compound] | 26 ± 3 µM |
| CC(=O)N[C@H](C(=O)O)C(C)(C)SN=O [SNAP, S-nitroso-N-acetyl-penicillamine, reference compound] | 530 ± 45 µM |

Same assay, conditions: Homo sapiens; HT-29 colon cancer cells, 24 hours (Table 3); read-out: IC50 at 24 hours for cell growth inhibition

| Structure (SMILES) | IC50 |
| --- | --- |
| CC(=O)Oc1ccccc1C(=O)OCCCOO[N+](=O)[O-] [aliphatic-NO-ASA, 3-(nitroperoxy)propyl 2-acetoxybenzoate, reference compound] | 750 ± 35 µM |
| CC(=O)Oc1ccccc1C(=O)Oc1cccc(CO[N+](=O)[O-])c1 [m-NO-ASA, 2-(acetyloxy)benzoic acid 3-(nitrooxymethyl)phenyl ester, reference compound] | 185 ± 15 µM |
| CC(=O)Oc1ccccc1C(=O)Oc1ccccc1CO[N+](=O)[O-] [o-NO-ASA, 2-(acetyloxy)benzoic acid 2-(nitrooxymethyl)phenyl ester, reference compound] | 8 ± 3 µM |
| CC(=O)Oc1ccccc1C(=O)Oc1ccc(CO[N+](=O)[O-])cc1 [p-NO-ASA, 2-(acetyloxy)benzoic acid 4-(nitrooxymethyl)phenyl ester, reference compound] | 10 ± 2 µM |
| CC(=O)Oc1ccccc1C(=O)Oc1ccc(-c2cc(=S)ss2)cc1 [HS-ASA, 4-(5-thioxo-5H-1,2-dithiol-3-yl)-phenyl 2-acetoxybenzoate, reference compound] | 4 ± 0.5 µM |
